Data as given in patent US20070231874A1, “Crystal of glucokinase protein, and method for drug design using the crystal” (priority 2002, published 2007).

Target: T1, glucokinase (Homo sapiens, UniProt P35557)
T1 sequence (P35557 1-466 isoform P35557-2): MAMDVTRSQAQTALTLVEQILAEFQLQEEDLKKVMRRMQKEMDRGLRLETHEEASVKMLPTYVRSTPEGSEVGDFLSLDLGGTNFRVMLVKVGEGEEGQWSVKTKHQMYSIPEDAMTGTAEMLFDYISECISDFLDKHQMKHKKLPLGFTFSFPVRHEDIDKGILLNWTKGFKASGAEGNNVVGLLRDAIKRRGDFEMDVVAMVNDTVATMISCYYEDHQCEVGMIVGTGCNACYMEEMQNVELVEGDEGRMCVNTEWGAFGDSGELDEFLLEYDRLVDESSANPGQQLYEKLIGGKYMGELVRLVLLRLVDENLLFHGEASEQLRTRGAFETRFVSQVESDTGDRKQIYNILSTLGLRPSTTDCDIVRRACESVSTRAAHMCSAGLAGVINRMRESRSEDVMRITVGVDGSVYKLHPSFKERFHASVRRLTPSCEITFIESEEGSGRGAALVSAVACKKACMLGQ
Test: glucokinase activity assay of compounds found by pharmacophore screening (activation relative to control)
Type: biochemical
Details: glucose 2.5 M, ligand 10 μM; activity of glucokinase is 100% in the case of control
Excerpt: Library compounds were screened using, as research conditions, pharmacophore of a hydrogen bond acceptor and hydrogen bond donor generated respectively from NH and CO of a main chain of Arg63, hydrophobic pharmacophore formed in a space corresponding to a phenyl group of an aniline part of a ligand forming a complex, and the protein surface made based on the structure of a protein, by using a software UNITY (manufactured by Tripos), and the following compound 4 and compound 5 were obtained and assayed, to confirm activities of 780% and 560%. An activity of 780% means that when the activity of glucokinase is 100% in the case of control, the activity is enhanced up to 780% by these compound (using glucose 2.5 M, and ligand 10 μM). [drawing 15]

Compound	activity of glucokinase (control = 100%) [%]
CCOC(=O)c1csc(NC(=O)c2cc(Sc3ccncc3)ccc2N)n1 [compound 5]	560
Nc1ccc(Oc2ccccc2)cc1C(=O)Nc1nccs1 [compound 4]	780
